Source: US20250281497A1, “FUSED AMINO PYRIMIDINE COMPOUNDS FOR TREATMENT OF SEIZURE DISORDERS” (Ovid Therapeutics Inc., priority 2024, published 2025)

Tests used:
KCC4 = target: T1, KCC4 (Homo sapiens, UniProt Q9Y666); test: Tl+ assay, HEK-293 cells expressing KCC4; assay type: cell-based; conditions: read-out: concentration at which effects on KCC4 were seen (EC50 chart FIG. 1G)
T1 construct: expressed in transfected cells; host or cells: HEK-293
T1 sequence (Q9Y666 1-1083): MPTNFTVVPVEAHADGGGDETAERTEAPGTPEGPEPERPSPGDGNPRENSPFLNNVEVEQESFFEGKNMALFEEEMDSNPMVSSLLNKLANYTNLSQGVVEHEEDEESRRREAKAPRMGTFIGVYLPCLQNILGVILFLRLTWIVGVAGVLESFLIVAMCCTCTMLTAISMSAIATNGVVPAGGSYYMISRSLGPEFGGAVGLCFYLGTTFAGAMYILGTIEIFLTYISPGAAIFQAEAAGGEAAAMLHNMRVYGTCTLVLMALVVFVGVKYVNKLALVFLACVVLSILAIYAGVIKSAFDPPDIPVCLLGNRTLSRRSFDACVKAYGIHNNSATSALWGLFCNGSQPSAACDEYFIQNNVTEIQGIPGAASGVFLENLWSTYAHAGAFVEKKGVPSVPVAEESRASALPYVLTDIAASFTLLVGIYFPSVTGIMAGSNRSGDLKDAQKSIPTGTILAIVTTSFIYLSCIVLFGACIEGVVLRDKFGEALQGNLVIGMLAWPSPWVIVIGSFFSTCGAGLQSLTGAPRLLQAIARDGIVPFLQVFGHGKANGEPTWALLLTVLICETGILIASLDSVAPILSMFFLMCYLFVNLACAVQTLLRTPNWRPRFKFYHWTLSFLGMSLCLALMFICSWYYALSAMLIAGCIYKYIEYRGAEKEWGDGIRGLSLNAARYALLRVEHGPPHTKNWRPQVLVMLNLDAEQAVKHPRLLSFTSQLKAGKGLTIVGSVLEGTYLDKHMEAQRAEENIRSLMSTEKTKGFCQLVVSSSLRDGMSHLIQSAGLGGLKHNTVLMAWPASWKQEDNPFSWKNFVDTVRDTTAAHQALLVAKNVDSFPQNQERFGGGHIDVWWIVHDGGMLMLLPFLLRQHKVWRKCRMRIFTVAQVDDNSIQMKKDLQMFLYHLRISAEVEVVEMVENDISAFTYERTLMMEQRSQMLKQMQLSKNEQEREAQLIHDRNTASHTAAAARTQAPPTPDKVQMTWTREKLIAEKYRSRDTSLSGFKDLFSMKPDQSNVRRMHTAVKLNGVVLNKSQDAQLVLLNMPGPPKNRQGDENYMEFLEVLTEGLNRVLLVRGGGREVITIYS
Protocol: FLIPR TI Flux assay. HEK-293 cells were washed with HBSS, and then incubated with loading buffer containing TI sensitive fluorescent dye (https://www.moleculardevices.com), 20 μM bumetanide 20 μM ouabain and 2.5 mM probenecid for 1 h at room temperature (RT) under control conditions or with drugs in the dark using a FlexStation 3 microplate reader (Molecular Devices) and imaged […] for 30 min. Stimulus buffer was added containing 5 mM K^+/0.5 mM Tl^+ and cells were imaged every 1.5 over a 190 second time course The initial rate Tl^+ uptake (Relative Fluorescence Units (RFU) per second) was determined following addition of the stimulus buffer as outlined previously (Conway et at, 2017, supra) (Lee et at, 2022, supra).
Several studies have shown that the activity and plasma membrane accumulation of KCC2 is potentiated via phosphorylation of S940, a process mediated by the activity of protein kinase C and protein phosphatase 1 (Lee et al., 2011, supra; Lee et al., J Biol Chem 282, 29777-29784 (2007); Moore et al., Proc. Natl. Acad. Sci. U.S.A. 115, 10166-10171 (2018); Moore et al., Trends Neurosci. 40, 555-571 (2017); Silayeva et al., Proc. Natl. Acad. Sci. U.S.A. 112, 3523-3528 (2015)). […] Compared to KCC2, effects on KCC3, KCC4, and NKCC1 were only seen at concentrations more than 35-fold that of KCC2 (>100 μM) (FIG. 1G).

KA induced SE = test: Kainic acid (KA) induced SE, EEG recording, pretreatment; assay type: in vivo, mice
Excerpt: This model was chosen due to the similarities with patients undergoing SE, as KA-induced seizures become refractory to benzodiazepines (BDZs) within minutes (Betjemann and Lowenstein, Lancet Neurol 14, 615-624 (2015); Crawshaw and Cock, (2020a) [Seizure: Eur. J. Epilep. 75 (2020) 145-152] Seizure 80, 282; Lee et at, 2022, supra; Reddy and Kuruba, Int J Mol Sci 14, 18284-18318 (2013)).
EEG recordings and analysis. WT C57Bl/6J adult male mice (12 weeks) were anesthetized with isofluorane and implanted with EEG/EMG electrodes and allowed to recover for 7 days prior to experimentation. […] 2h following KA administration mice were injected with a saturating concentration of diazepam (DZ) 10 mg/kg (IP) and recordings were extended for a further 60 min. […] LabChart 8 software was used for data analysis. Epileptiform activity was identified by changes in the amplitude of electrographic activity characterized by consistent changes in the power of the Fast Fourier transform (FFT) of the EEG and abnormal activity characterized by periods of rhythmic spiking lasting longer than 30s (Moore et al., 2017, supra; Silayeva et al., 2015, supra; Sivakumaran et al., J. Neurosci. 35, 8291-8296 (2015)).
To provide quantitative insights on the effects of KA, raw EEG recordings were subject to Fast-Fourier transformation (8K FFT size, Hann (cosine-bell), 87.50% window overlap) for frequencies between 0-100 Hz 2h after KA injection (Lee et at, 2022, supra).
30 or 60 min later mice were injected with KA (20 mg/kg) and 2h later with DZ as detailed above.

C[C@@H]1CN(c2nc3c(c(Nc4ccc(C5CCCCC5)cc4)n2)COC3)CCO1 [Compound A, (R)—N-(4-cyclohexylphenyl)-2-(2-methylmorpholino)-5,7-dihydrofuro[3,4-d]pyrimidin-4-amine]
EC50 (KCC4): > 100 µM | seizure parameters after injection directly into the hippocampus (KA induced SE; 10 μM or 20 μM, 30 or 60 min before KA 20 mg/kg, relative to vehicle): increased the latency to the 1st seizure, to SE, and reduced the percentage of time in epileptiform activity | latency to the first seizure (KA induced SE; 50 mg/kg SC 2h before 20 mg/kg KA IP, vehicle=10.2±2.5): 14.4 ± 2.9 min | latency to SE (KA induced SE; 50 mg/kg SC 2h before KA, vehicle=38.3±3.4): 54.5 ± 6.9 min | time spent in epileptiform activity (KA induced SE; 50 mg/kg SC 2h before KA, vehicle=85±5.4): 62.5±8.4% | total EEG power post DZ (KA induced SE; mice pretreated with Compound A, then DZ 10 mg/kg IP 2h after KA): 2.7±3.2×10^−7 μV^2 | total EEG power 2h after KA (pre DZ) (KA induced SE; pretreated with Compound A, vehicle 4.2±2.4×10^−6): 6.9±3.2×10^−7 μV^2 | development of refractory status epilepticus (RSE) (KA induced SE; pretreatment, 4h later): prevented the development of refractory status epilepticus (RSE)
